The record followed here is patent publication EP4722219A1 (Gan & Lee Pharmaceuticals Co., Ltd., priority 2023, dated 2024).

Holding throughout (type): cell-based
Experiment [1] has as its target T1, ERα (Homo sapiens, UniProt P03372).
T1 sequence (P03372 1-595): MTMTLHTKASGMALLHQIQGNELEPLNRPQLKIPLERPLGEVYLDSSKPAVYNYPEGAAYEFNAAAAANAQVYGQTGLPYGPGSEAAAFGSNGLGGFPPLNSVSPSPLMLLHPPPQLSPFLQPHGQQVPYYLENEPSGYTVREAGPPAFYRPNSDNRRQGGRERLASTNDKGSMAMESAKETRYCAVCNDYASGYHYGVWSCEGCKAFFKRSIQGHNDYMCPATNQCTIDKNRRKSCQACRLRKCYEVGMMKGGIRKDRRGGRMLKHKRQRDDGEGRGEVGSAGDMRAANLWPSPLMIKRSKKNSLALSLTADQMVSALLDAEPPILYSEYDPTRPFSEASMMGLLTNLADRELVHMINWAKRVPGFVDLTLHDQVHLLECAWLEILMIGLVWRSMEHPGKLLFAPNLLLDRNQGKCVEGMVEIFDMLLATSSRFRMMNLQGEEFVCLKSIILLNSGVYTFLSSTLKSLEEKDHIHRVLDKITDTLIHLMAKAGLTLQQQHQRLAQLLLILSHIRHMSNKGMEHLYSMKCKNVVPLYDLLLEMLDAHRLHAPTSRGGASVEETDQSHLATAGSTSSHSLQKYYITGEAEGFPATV
Nature of the experiment: ERα degradation in T-47D cells (Western blot). The conditions noted are these: 4 hours. A digest of the protocol: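 T-47D cells at 3×10^5 cells/well were exposed to compound (final 0.15-1000 nM, DMSO) for 4 hours at 37°C and then lysed in RIPA. ERα was measured by Western blot (20 µg protein) with infrared imaging. The degradation rate was calculated from ERα/internal-reference grayscale ratios relative to control.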

The target of experiment [2] is T1, ERα. In words: ERα degradation in MCF-7 cells (Western blot). Conditions: 4 hours. On the set-up: host or cells: MCF-7. The essentials: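 MCF-7 cells treated 4 h at 37 °C with compound at 0.15–1000 nM final. ERα in lysates measured by Western blot (20 µg protein), normalized to an internal reference protein; degradation rate calculated against control.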
The test system of a further experiment is T-47D cells. Nature of the experiment: Inhibition of cell proliferation in T-47D cells (CCK-8). The conditions noted are these: Homo sapiens, T47D, 144 h, 6 days treatment, CCK-8 cell viability. The essentials:
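T-47D cells (3,000/well) in RPMI-1640 with 10% FBS were exposed to a concentration range of PROTAC compounds for 6 days at 37 °C, 5% CO2. Viability read by CCK-8; IC50 fitted from inhibition rate.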

A further experiment deals with MCF-7 cells. Nature of the experiment: Inhibition of cell proliferation in MCF-7 cells (CCK-8). The conditions noted are these: Homo sapiens, MCF7, 144 h, MCF-7 cell proliferation, 6 days treatment. The essentials:
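MCF-7 cells, 800 per well in DMEM plus 10% FBS, exposed to graded PROTAC concentrations for 6 days at 37 °C, 5% CO2. Viability by CCK-8; IC50 fitted from inhibition rates.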

Consider `C[C@@H]1Cc2cc(O)ccc2C(c2c(F)cc(N3CCC4(CC3)CC(N3CCC5(CC3)CCC3(CC5)COc5c3ccc3c5CN(C5CCC(=O)NC5=O)C3=O)C4)cc2F)N1CC(F)F` (stereo partly drawn) [ER-P-27, 3-(1"-(7-(4-((3R)-2-(2,2-difluoroethyl)-6-hydroxy-3-methyl-1,2,3,4-tetrahydroisoquinolin-1-yl)-3,5-difluorophenyl)-7-azaspiro[3.5]nonan-2-yl)-6-oxo-6,8-dihydro-2H,7H-dispiro[furo[2,3-e]isoindole-3,1'-cyclohexane-4',4"-piperidin]-7-yl)piperidine-2,6-dione], for which the entries for the “Degradation rate of ERα in T-47D cells (%)” value at ERα [1] (1nM) and on ERα [1] (10nM) were 20% and 53%, respectively. In addition, the figures for the “Degradation rate of ERα in MCF-7 cells (%)” value at ERα [2] (1nM) and at ERα [2] (10nM) were 26% and 62%, respectively. The IC50 is 1.34 nM in the experiment on T-47D cells and less than 0.256 nM in the experiment on MCF-7 cells.

On to `C[C@@H]1Cc2cc(O)ccc2C(c2c(F)cc(N3CCC4(CC3)CC(N3CC5(CCC6(CC5)COc5c6ccc6c5CN(C5CCC(=O)NC5=O)C6=O)C3)C4)cc2F)N1CC(F)F` (stereo partly drawn) [ER-P-28, 3-(1-(7-(4-((3R)-2-(2,2-difluoroethyl)-6-hydroxy-3-methyl-1,2,3,4-tetrahydroisoquinolin-1-yl)-3,5-difluorophenyl)-7-azaspiro[3.5]nonan-2-yl)-6"-oxo-6",8"-dihydro-2"H,7"H-dispiro[azetidine-3,1'-cyclohexane-4',3"-furo[2,3-e]isoindol]-7"-yl)piperidine-2,6-dione], for which the “Degradation rate of ERα in T-47D cells (%)” value on ERα [1] (1nM) is on record as 41%; on ERα [1] (10nM) it was 59%. For the same molecule, the “Degradation rate of ERα in MCF-7 cells (%)” value at ERα [2] (1nM) is recorded as 38%; at ERα [2] (10nM) it was 63%. For the same molecule, the half-maximal inhibitory concentration (IC50) is 1.56 nM in the experiment with T-47D cells and less than 0.256 nM with MCF-7 cells.

For the molecule `C[C@@H]1Cc2cc(O)ccc2C(c2c(F)cc(N3CCC4(CCC(N5CCC6(CC5)COc5c6ccc6c5n(C)c(=O)n6C5CCC(=O)NC5=O)CC4)CC3)cc2F)N1CC(F)F` (stereo partly drawn) [ER-P-29, 3-(1'-(3-(4-((3R)-2-(2,2-difluoroethyl)-6-hydroxy-3-methyl-1,2,3,4-tetrahydroisoquinolin-1-yl)-3,5-difluorophenyl)-3-azaspiro[5.5]undecan-9-yl)-1-methyl-2-oxo-1,2-dihydro-3H,7H-spiro[benzofuro[6,7-d]imidazole-6,4'-piperidin]-3-yl)piperidine-2,6-dione], the entries for the “Degradation rate of ERα in T-47D cells (%)” value on ERα [1] (1nM) and at ERα [1] (10nM) were 53% and 41%, respectively. Also, the entries for the “Degradation rate of ERα in MCF-7 cells (%)” value on ERα [2] (1nM) and on ERα [2] (10nM) were 54% and 25%, respectively. Besides, the 50% inhibitory concentration (IC50) in the experiment with T-47D cells was determined as 0.92 nM; in the experiment on MCF-7 cells it was 140 nM.

For the molecule `C[C@@H]1Cc2cc(O)ccc2C(c2c(F)cc(N3CCC(C(=O)N4CCC(N5CCC6(CC5)COc5c6ccc6c5n(C)c(=O)n6C5CCC(=O)NC5=O)CC4)CC3)cc2F)N1CC(F)F` (stereo partly drawn) [ER-P-30, 3-(1'-(1-(1-(4-((3R)-2-(2,2-difluoroethyl)-6-hydroxy-3-methyl-1,2,3,4-tetrahydroisoquinolin-1-yl)-3,5-difluorophenyl)piperidine-4-carbonyl)piperidin-4-yl)-1-methyl-2-oxo-1,2-dihydro-3H,7H-spiro[benzofuro[6,7-d]imidazole-6,4'-piperidin]-3-yl)piperidine-2,6-dione], the “Degradation rate of ERα in T-47D cells (%)” value on ERα [1] (1nM) was 47%; on ERα [1] (10nM), 17%. The figures for the “Degradation rate of ERα in MCF-7 cells (%)” value on ERα [2] (1nM) and at ERα [2] (10nM) were 42% and 14%, respectively. In addition, the figures for the IC50 in the experiment on T-47D cells and in the experiment on MCF-7 cells were 2.42 nM and 4960 nM, respectively.

As to `O=C1CCC(Nc2ccc3c(c2)OCC32CCN(C[C@H]3CC[C@@H](OC4CCN(c5ccc([C@@H]6c7ccc(O)cc7CC[C@@H]6c6ccccc6)cc5)CC4)CC3)CC2)C(=O)N1` (stereo partly drawn) [ER-P-31, 3-((1'-(((1S,4s)-4-((1-(4-((1R,2S)-6-hydroxy-2-phenyl-1,2,3,4-tetrahydronaphthalen-1-yl)phenyl)piperidin-4-yl)oxy)cyclohexyl)methyl)-2H-spiro[benzofuran-3,4'-piperidin]-6-yl)amino)piperidine-2,6-dione], the “Degradation rate of ERα in T-47D cells (%)” value at ERα [1] (1nM) was 26%; at ERα [1] (10nM), 79%. The results for the “Degradation rate of ERα in MCF-7 cells (%)” value at ERα [2] (1nM) and on ERα [2] (10nM) were 29% and 71%, respectively. In addition, the IC50 in the experiment on T-47D cells came out at 2.71 nM; in the experiment with MCF-7 cells it was 54.8 nM.

In the case of `CN(c1ccc2c(c1)OCC21CCN(C[C@H]2CC[C@@H](OC3CCN(c4ccc([C@@H]5c6ccc(O)cc6CC[C@@H]5c5ccccc5)cc4)CC3)CC2)CC1)C1CCC(=O)NC1=O` (stereo partly drawn) [ER-P-32, 3-((1'-(((1S,4s)-4-((1-(4-((1R,2S)-6-hydroxy-2-phenyl-1,2,3,4-tetrahydronaphthalen-1-yl)phenyl)piperidin-4-yl)oxy)cyclohexyl)methyl)-2H-spiro[benzofuran-3,4'-piperidin]-6-yl)(methyl)amino)piperidine-2,6-dione], the “Degradation rate of ERα in T-47D cells (%)” value is listed as -2% on ERα [1] (1nM) and 15% on ERα [1] (10nM). The “Degradation rate of ERα in MCF-7 cells (%)” value amounted to 12% at ERα [2] (1nM) and 13% on ERα [2] (10nM). Moreover, the IC50 was found to be 19.5 nM in the experiment with T-47D cells and 705 nM in the experiment with MCF-7 cells.

Regarding `O=C1CCC(Nc2ccc3c(c2)OC2(CC3)CN(C[C@H]3CC[C@@H](OC4CCN(c5ccc([C@@H]6c7ccc(O)cc7CC[C@@H]6c6ccccc6)cc5)CC4)CC3)C2)C(=O)N1` (stereo partly drawn) [ER-P-33, 3-((1-(((1S,4s)-4-((1-(4-((1R,2S)-6-hydroxy-2-phenyl-1,2,3,4-tetrahydronaphthalen-1-yl)phenyl)piperidin-4-yl)oxy)cyclohexyl)methyl)spiro[azetidine-3,2'-chroman]-7'-yl)amino)piperidine-2,6-dione], the entries for the “Degradation rate of ERα in T-47D cells (%)” value on ERα [1] (1nM) and at ERα [1] (10nM) were -16% and 32%, respectively. Also, the “Degradation rate of ERα in MCF-7 cells (%)” value on ERα [2] (1nM) is on record as -5%; on ERα [2] (10nM) it was -9%. The IC50 with T-47D cells came to 15.5 nM; in the experiment on MCF-7 cells, 2330 nM.

Consider `O=C1CCC(Nc2ccc3c(c2)COC[C@H]2CN(C[C@H]4CC[C@@H](OC5CCN(c6ccc([C@@H]7c8ccc(O)cc8CC[C@@H]7c7ccccc7)cc6)CC5)CC4)CCN32)C(=O)N1` (stereo partly drawn) [ER-P-34, 3-(((R)-3-(((1S,4S)-4-((1-(4-((1R,2S)-6-hydroxy-2-phenyl-1,2,3,4-tetrahydronaphthalen-1-yl)phenyl)piperidin-4-yl)oxy)cyclohexyl)methyl)-1,2,3,4,4a,5-hexahydro-7H-benzo[e]pyrazino[2,1-c][1,4]oxazepin-9-yl)amino)piperidine-2,6-dione], for which the figures for the “Degradation rate of ERα in T-47D cells (%)” value on ERα [1] (1nM) and at ERα [1] (10nM) were 15% and 24%, respectively. The entries for the “Degradation rate of ERα in MCF-7 cells (%)” value at ERα [2] (1nM) and on ERα [2] (10nM) were 5% and 17%, respectively. Further, the IC50 in the experiment with T-47D cells worked out at 26.9 nM; with MCF-7 cells, 2120 nM.

For the molecule `O=C1CCC(Nc2ccc3c(c2)OC[C@@H]2CN(C4CC5(CCN(c6ccc([C@@H]7c8ccc(O)cc8CC[C@@H]7c7ccccc7)cc6)CC5)C4)CCN32)C(=O)N1` (stereo partly drawn) [ER-P-35], the “Degradation rate of ERα in T-47D cells (%)” value on ERα [1] (1nM) and at ERα [1] (10nM) was 21% throughout. In addition, the “Degradation rate of ERα in MCF-7 cells (%)” value at ERα [2] (1nM) is recorded as 6%; on ERα [2] (10nM) it was -3%. Further, the IC50 in the experiment on T-47D cells was found to be 22.7 nM; with MCF-7 cells, 876 nM.
